Data on two compounds can be found in patent publication US11826466B2, “Bendamustine solution formulations” (Navinta, LLC, priority 2016, dated 2023).

Where a name gives a salt, the structure may show the parent alone.

A short description of data set [1]: Solubility of Bendamustine Hydrochloride in DMA.
Data set [2] in a line: Solubility of Bendamustine Hydrochloride in DMA-Water Mixture. As to conditions: organic solvent or mixture, thermodynamic from solid, 5° C. The format is physicochemical. How it is done:
To 10 ml of DMA-water mixture, excess (˜2-3 g) of Bendamustine Hydrochloride hydrate was added and the mixture was stirred for 24 hr while keeping in a constant temperature bath. After 24 hr, the mixture was centrifuged to remove the undissolved solid and the supernatant was filtered through a 0.2 micron filter. The clear filtrate was assayed.

The conditions of data set [3]: room temperature; reported in U.S. Pat. No. 8,344,006; cited from earlier work.

The solubility is the concentration that dissolves in the medium under given conditions. As to `Cn1c(CCCC(=O)O)nc2cc(N(CCCl)CCCl)ccc21` [Bendamustine Hydrochloride hydrate], the “concentration of solutions in DMA made by adding water to DMA” value in data set [1] (DMA with added water) is “up to 200 mg/mL”. For the same compound, in data set [1] (DMA, 2 °C, organic solvent or mixture), the solubility was about 65 mg/mL. Besides, the solubility at 24 h in data set [2] (DMA:Water 60:40) came to 67 mg/mL; in data set [2] (DMA:Water 80:20), 169 mg/mL; in data set [2] (DMA:Water 90:10) it was 201 mg/mL; in data set [2] (DMA:Water 95:5), 114 mg/mL; in data set [2] (DMA:Water 97:3), 116 mg/mL; in data set [2] (DMA) it was 72 mg/mL.

As for `Cn1c(CCCC(=O)O)nc2cc(N(CCCl)CCCl)ccc21` [Bendamustine Hydrochloride], the “solubility in DMA” value in data set [3] is on record as “about 56 mg/mL”.
